Drawing on a melting point compilation (Tetko et al.; mined from patent text by program, amines drawn as free bases though some values may be those of a salt), this text covers melting point for 36 compounds.

By melting point is commonly meant the temperature of the solid-liquid transition. With `OCC1Cc2c([nH]c3ccccc23)CN1C(=S)S` (stereo unspecified), the melting point fell in the range of 225 to 227 °C.
The compound `CC12CCC(=O)C=C1CCC1C2CCC2(C)C(CO)CCC12` (stereo unspecified) gave a melting point of 151 °C.
In the case of `Oc1ccc([C@@H]2C[C@H]2c2ccccc2)cc1` (relative stereo), the melting point fell in the range of 78 to 79 °C.
In the case of `C=CCn1c(=O)c([N+](=O)[O-])c(O)c2ccccc21`, the melting point is 125 to 127 °C.
For `Cc1cc(C)c(C(C)(C#N)c2nc(C)nc(Cl)c2C)c(C)c1` (stereo unspecified), the melting point lay in the range of 181 to 183 °C.
For the compound `CC(C)C[C@H](NC(=O)COc1ccccc1)C(=O)N[C@@H](C(C)C)[C@H](O)c1c(-c2ccc(F)cc2)c1=O`, the melting point lay in the range of 75 to 79 °C.
As for `Cc1cc(N)cnc1Oc1cccc(C(C)(C)C)c1`, the melting point lay within 83 to 84 °C.
Compound `CN(C)CCSc1c2ccccc2c(-c2cc(Br)c(O[C@H](Cc3ccccc3)C(=O)O)c(Br)c2)c2c1sc1ccccc12` returned a melting point of 169 to 174 °C.
Compound `CN(C)C(=O)Sc1ccc(CC#N)cc1` returned a melting point of 97 to 99 °C.
`CCNC(=O)N(C)Cc1cccc2c1C(=O)N(C1CCC(=O)NC1=O)C2=O` (stereo unspecified) had a melting point of 219 to 221 °C.
For `COCCNc1ccc(C2=NNC(=O)NC2C)cc1` (stereo unspecified), the melting point lay within 160 to 165 °C.
As for `[N-]=[N+]=NC1CC(n2cc(C=CBr)c(=O)[nH]c2=O)OC1CCl` (stereo unspecified), the melting point lay within 124 to 125 °C.
The compound `Oc1nc(O)c2c(n1)CCCS2` showed a melting point of more than 300 °C.
With `CCCc1nc(C=O)cc(N)c1F` the figure was 113 to 114 °C.
For the compound `CC12CCC(=O)C=C1CCC1C2=CCC2(C)C1CCC2(O)C#N` (stereo unspecified), the melting point lay in the range of 225 to 228 °C.
With `COc1ccc(/C=C/C(=O)c2ccc(C(=O)O)cc2)cc1-c1cccs1` the figure was 219 to 220 °C.
`Cc1nc(-n2cc(-c3ccsc3)nn2)sc1C(=O)NCc1ccccc1` yielded a melting point of 123 to 126 °C.
The compound `CC1(C)OC(=O)N[C@H]1Cc1ccccc1` yielded a melting point of 59 °C.
For the compound `COc1ccc(CCn2cnc3oc(C)c(C)c3c2=N)cc1`, the melting point was determined as 125 °C.
On to `CC(C)NCC(O)COc1cc(-c2ccccc2)nc2ccccc12` (racemic), for which the melting point is 109 to 111 °C.
`CCC1(CC)C(=O)N(C(C)(C)C)CC(C)(C)N1OC(=O)Nc1ccccc1`: the melting point lay in the range of 160 to 163 °C.
Regarding `CCOc1nnc(COc2ccc(Oc3cccc(Cl)n3)cc2)s1`, the melting point lay within 92 to 94 °C.
With `CC1(C2=C(O)C(=O)c3ccccc3C2=O)CCCCC1`, the melting point is 79 °C.
In the case of `C=CCOc1ccc(-c2cccc(C#N)c2)cc1`, the melting point is 80 to 90 °C.
On to `O=C(OCC1OC(OC(=O)c2ccccc2)C(F)C1OC(=O)c1ccccc1)c1ccccc1` (stereo unspecified), for which the melting point lay in the range of 77 to 78 °C.
Compound `O=c1c2c(Cl)cccc2nc(C(S)c2ncnc3[nH]cnc23)n1-c1ccccc1Cl` (stereo unspecified) had a melting point of 234 °C.
As to `CC(C)(C)OC(=O)N1CCC(c2ccc(N3C[C@H](CO)OC3=O)cc2F)CC1`, the melting point lay in the range of 120 to 122 °C.
`COc1ccnc(CCc2nc3cc(-c4ccc(S(=O)(=O)N5CCCN(C)CC5)cc4)cnc3[nH]2)c1` displayed a melting point of 160 to 162 °C.
With `CCCCNC(=O)Nc1c(N)cccc1C(=O)NCC1CCN(C(c2ccccc2)c2ccccc2)CC1` the figure was 212 to 213 °C; with `CCOC(=O)Cc1sc(NC(C)=O)nc1-c1ccc(Cl)cc1`, 187 to 188 °C.
On to `O=C(Cl)c1cscc1S(=O)(=O)Cl`, for which the melting point lay in the range of 78 to 79 °C.
The compound `COc1ccc(Cl)cc1C1(F)C(=O)Nc2cc(I)ccc21` (stereo unspecified) returned a melting point of 205 to 210 °C.
`Cc1nc(-c2cccnc2)sc1-c1ccnc(Nc2ccc(N3CCSCC3)cc2)n1` registered a melting point of 191 to 193 °C.
`O=C1c2ccc(C(F)(F)F)cc2CCC1CN1CCC2(CC1)C(=O)NCN2c1ccccc1` (stereo unspecified): the melting point lay in the range of 159 to 162 °C.
On to `CCOC(=O)c1cc(=O)c2ccc(OCCCCl)cc2o1`, for which the melting point lay within 107 to 108 °C.
Turning to `COc1ccc(CNC(=O)c2nccnc2N)cc1`, the melting point was in the range of 93 to 95 °C.
